Like-named read-outs stand apart in the source and are kept apart here.
What was measured:
[1] = biological target: Tb-labeled inactive PDGFRβ (Homo sapiens (Human), UniProt P09619); assay: PDGFRβ LanthaScreen Assay; format: binding; conditions: read-out: PDGFR Lantha IC50
PDGFRβ = PDGFRβ (Rattus norvegicus (Rat), UniProt Q05030); assay: PDGFRβ Cellular Assay (PDGFRb P-Y751 HTRF in A10 cells stimulated with PDGF-BB); format: cell-based
Outline: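 Phospho-Y751 PDGFRβ was measured by HTRF in lysates of A10 rat cells. Cells received compound for 3 hours before PDGF-BB stimulation (100 ng/mL working stock).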

VEGFR2, unphosphorylated = VEGFR2, unphosphorylated (Homo sapiens (Human), UniProt P35968); assay: VEGFR ADP GLO Assay; format: biochemical
VEGFR2, unphosphorylated, sequence (P35968 20-1356): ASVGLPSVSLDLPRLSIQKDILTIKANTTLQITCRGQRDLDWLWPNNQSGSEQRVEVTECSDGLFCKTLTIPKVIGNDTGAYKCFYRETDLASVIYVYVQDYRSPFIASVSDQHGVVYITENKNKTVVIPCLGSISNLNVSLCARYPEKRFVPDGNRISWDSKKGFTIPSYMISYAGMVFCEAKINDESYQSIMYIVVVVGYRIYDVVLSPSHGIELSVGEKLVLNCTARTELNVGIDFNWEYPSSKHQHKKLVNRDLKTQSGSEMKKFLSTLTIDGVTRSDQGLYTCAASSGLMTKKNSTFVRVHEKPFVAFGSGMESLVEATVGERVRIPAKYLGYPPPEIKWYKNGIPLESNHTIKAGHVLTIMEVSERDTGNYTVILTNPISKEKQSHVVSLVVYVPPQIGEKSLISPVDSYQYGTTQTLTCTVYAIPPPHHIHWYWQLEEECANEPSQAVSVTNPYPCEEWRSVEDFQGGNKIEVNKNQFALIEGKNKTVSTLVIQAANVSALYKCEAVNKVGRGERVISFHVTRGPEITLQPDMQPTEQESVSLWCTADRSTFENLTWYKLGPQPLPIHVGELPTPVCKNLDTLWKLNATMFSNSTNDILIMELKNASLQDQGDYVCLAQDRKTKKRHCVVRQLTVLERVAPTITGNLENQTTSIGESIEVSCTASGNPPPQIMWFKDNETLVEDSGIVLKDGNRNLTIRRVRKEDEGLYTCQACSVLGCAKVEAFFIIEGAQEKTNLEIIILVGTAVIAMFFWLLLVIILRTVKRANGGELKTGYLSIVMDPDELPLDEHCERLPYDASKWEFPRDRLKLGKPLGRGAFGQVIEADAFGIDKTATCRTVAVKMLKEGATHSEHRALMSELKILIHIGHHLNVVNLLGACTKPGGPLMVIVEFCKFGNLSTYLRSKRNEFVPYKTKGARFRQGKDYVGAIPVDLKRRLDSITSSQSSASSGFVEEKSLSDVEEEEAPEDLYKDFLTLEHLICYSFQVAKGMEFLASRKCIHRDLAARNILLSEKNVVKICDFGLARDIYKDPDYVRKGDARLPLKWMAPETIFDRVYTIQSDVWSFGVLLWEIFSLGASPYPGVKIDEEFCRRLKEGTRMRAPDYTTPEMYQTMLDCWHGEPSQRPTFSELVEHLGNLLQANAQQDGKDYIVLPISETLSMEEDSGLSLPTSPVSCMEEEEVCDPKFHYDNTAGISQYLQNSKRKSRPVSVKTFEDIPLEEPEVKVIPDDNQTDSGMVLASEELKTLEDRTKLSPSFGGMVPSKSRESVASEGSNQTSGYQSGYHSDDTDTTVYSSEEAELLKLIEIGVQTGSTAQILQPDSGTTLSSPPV

PDGFRβ, sequence (Q05030 32-1097): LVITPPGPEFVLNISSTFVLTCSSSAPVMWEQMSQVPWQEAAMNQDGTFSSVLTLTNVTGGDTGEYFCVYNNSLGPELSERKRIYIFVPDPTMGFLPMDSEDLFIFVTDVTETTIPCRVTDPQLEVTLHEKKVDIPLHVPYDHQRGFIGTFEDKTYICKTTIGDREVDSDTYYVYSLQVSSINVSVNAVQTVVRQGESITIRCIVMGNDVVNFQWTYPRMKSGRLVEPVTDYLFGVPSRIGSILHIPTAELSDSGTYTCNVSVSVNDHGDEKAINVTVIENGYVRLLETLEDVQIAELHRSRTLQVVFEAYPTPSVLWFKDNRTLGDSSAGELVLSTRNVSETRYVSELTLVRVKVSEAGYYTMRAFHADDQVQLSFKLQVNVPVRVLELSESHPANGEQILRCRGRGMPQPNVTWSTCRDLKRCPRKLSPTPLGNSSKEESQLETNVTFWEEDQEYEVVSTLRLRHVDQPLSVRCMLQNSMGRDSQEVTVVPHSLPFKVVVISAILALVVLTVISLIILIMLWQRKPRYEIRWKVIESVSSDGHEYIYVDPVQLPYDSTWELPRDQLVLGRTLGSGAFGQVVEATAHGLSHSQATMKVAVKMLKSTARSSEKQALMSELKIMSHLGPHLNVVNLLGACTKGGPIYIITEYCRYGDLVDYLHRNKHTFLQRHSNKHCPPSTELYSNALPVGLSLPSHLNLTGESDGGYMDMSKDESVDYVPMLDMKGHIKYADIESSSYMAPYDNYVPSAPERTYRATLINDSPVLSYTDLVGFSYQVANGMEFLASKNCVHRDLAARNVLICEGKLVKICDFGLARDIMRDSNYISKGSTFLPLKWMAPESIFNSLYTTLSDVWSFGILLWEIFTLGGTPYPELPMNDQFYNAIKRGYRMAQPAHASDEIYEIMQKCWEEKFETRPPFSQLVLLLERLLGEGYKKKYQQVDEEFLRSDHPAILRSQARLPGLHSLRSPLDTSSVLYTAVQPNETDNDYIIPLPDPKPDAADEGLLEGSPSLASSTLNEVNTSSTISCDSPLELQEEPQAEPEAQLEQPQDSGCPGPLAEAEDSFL
Tb-labeled inactive PDGFRβ, sequence (P09619 33-1106): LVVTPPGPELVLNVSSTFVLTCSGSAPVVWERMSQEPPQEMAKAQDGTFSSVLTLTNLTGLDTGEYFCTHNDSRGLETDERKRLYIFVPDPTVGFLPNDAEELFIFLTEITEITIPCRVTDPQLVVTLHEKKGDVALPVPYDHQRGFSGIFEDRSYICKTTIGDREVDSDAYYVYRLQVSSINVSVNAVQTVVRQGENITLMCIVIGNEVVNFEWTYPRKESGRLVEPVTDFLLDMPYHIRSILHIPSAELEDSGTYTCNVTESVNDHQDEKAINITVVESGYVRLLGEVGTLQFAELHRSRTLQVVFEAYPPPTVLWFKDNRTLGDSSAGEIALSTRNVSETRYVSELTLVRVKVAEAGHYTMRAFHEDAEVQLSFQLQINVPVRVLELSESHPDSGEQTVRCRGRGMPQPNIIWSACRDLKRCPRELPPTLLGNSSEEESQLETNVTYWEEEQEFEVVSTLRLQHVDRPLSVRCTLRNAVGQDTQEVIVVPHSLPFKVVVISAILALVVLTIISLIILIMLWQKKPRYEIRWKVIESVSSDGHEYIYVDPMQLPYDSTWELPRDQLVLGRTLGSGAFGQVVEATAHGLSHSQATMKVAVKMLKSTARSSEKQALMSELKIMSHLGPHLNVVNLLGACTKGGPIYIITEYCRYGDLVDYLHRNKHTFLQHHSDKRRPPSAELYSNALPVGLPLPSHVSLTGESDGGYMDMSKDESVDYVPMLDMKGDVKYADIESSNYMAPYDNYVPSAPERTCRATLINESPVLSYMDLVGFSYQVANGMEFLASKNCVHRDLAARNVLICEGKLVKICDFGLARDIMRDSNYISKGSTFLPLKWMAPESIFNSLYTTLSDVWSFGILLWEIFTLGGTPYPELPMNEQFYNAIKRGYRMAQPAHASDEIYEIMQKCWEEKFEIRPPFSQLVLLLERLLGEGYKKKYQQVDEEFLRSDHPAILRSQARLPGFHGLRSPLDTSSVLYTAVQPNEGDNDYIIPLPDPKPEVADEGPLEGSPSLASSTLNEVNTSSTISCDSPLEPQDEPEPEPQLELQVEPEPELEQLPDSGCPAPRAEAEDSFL

| Compound | IC50 [1] [nM] | IC50 (PDGFRβ; read-out: PDGFR Cellular IC50) [nM] | IC50 (VEGFR2, unphosphorylated) [nM] | IC50 (PDGFRβ; PDGFR Cellular IC50) [nM] |
| --- | --- | --- | --- | --- |
| COc1ccc(-c2cn3ncc(C(=O)Nc4cc(NC(=O)CN5CC(C)(C)C5)cnc4C)c3s2)cn1 [Example 395, N-(5-(2-(3,3-dimethylazetidin-1-yl)acetamido)-2-methylpyridin-3-yl)-2-(6-methoxypyridin-3-yl)pyrazolo[5,1-b]thiazole-7-carboxamide] | 7.3 | 6.2 | > 7500 | – |
| COc1ncccc1-c1cn2ncc(C(=O)Nc3cc(NC(=O)CN4CC(C)(OC)C4)cnc3C)c2s1 [Example 396, N-(5-(2-(3-methoxy-3-methylazetidin-1-yl)acetamido)-2-methylpyridin-3-yl)-2-(2-methoxypyridin-3-yl)pyrazolo[5,1-b]thiazole-7-carboxamide] | 1.8 | 4.3 | > 7500 | – |
| COc1ncccc1-c1cn2ncc(C(=O)Nc3cc(NC(=O)CN4CCC4)cnc3C)c2s1 [Example 397, N-(5-(2-(azetidin-1-yl)acetamido)-2-methylpyridin-3-yl)-2-(2-methoxypyridin-3-yl)pyrazolo[5,1-b]thiazole-7-carboxamide] | 22.1 | – | > 7500 | 7.6 |
| Cc1ncc(NC(=O)CN2CC(C)(C)C2)cc1NC(=O)c1cnn2cc(-c3cncnc3C)sc12 [Example 398, N-(5-(2-(3,3-dimethylazetidin-1-yl)acetamido)-2-methylpyridin-3-yl)-2-(4-methylpyrimidin-5-yl)pyrazolo[5,1-b]thiazole-7-carboxamide] | 181 | 169 | > 7500 | – |
| COc1cnccc1-c1cn2ncc(C(=O)Nc3cc(NC(=O)CN4CC(C)(C)C4)cnc3C)c2s1 [Example 399, N-(5-(2-(3,3-dimethylazetidin-1-yl)acetamido)-2-methylpyridin-3-yl)-2-(3-methoxypyridin-4-yl)pyrazolo[5,1-b]thiazole-7-carboxamide] | 1.1 | 1.3 | 4770 | – |
| COc1ncccc1-c1cn2ncc(C(=O)Nc3cc(NC(=O)CN4CC(F)C4)cnc3C)c2s1 [Example 402, N-(5-(2-(3-fluoroazetidin-1-yl)acetamido)-2-methylpyridin-3-yl)-2-(2-methoxypyridin-3-yl)pyrazolo[5,1-b]thiazole-7-carboxamide] | 2.7 | 5.4 | > 7500 | – |
| COc1ncccc1-c1cn2ncc(C(=O)Nc3cc(NC(=O)CN4CC5(CCOCC5)C4)cnc3C)c2s1 [Example 403, N-(5-(2-(7-oxa-2-azaspiro[3.5]nonan-2-yl)acetamido)-2-methylpyridin-3-yl)-2-(2-methoxypyridin-3-yl)pyrazolo[5,1-b]thiazole-7-carboxamide carboxamide] | 1.3 | 3.3 | > 7500 | – |
| COc1ncccc1-c1cn2ncc(C(=O)Nc3cc(NC(=O)CN4CC5(COC5)C4)cnc3C)c2s1 [Example 404, N-(5-(2-(2-oxa-6-azaspiro[3.3]heptan-6-yl)acetamido)-2-methylpyridin-3-yl)-2-(2-methoxypyridin-3-yl)pyrazolo[5,1-b]thiazole-7-carboxamide] | 4.9 | 7.2 | > 7500 | – |
| COc1ncccc1-c1cn2ncc(C(=O)Nc3cc(NC(=O)CN4CC(C)C4)cnc3C)c2s1 [Example 405, 2-(2-methoxypyridin-3-yl)-N-(2-methyl-5-(2-(3-methylazetidin-1-yl)acetamido)pyridin-3-yl)pyrazolo[5,1-b]thiazole-7-carboxamide] | 3.9 | 3.8 | 6660 | – |
| Cc1ncc(NC(=O)CN2CC3(CCOCC3)C2)cc1NC(=O)c1cnn2cc(-c3cnn4c3OCCC4)sc12 [Example 406, N-(5-(2-(7-oxa-2-azaspiro[3.5]nonan-2-yl)acetamido)-2-methylpyridin-3-yl)-2-(6,7-dihydro-5H-pyrazolo[5,1-b][1,3]oxazin-3-yl)pyrazolo[5,1-b]thiazole-7-carboxamide] | 2.3 | 18.9 | > 7500 | – |
| Cc1ncc(NC(=O)CN2CC(C)C2)cc1NC(=O)c1cnn2cc(-c3cnn4c3OCCC4)sc12 [Example 407, 2-(6,7-dihydro-5H-pyrazolo[5,1-b][1,3]oxazin-3-yl)-N-(2-methyl-5-(2-(3-methylazetidin-1-yl)acetamido)pyridin-3-yl)pyrazolo[5,1-b]thiazole-7-carboxamide] | 6.2 | 11.9 | > 7500 | – |
